One data set concerns the target T1, COX-1 (Ovis aries, UniProt P05979).
T1 construct: purified enzyme from ram seminal vesicles; from tissue; host or cells: ram seminal vesicles (purified enzyme)
T1 sequence (P05979 25-600): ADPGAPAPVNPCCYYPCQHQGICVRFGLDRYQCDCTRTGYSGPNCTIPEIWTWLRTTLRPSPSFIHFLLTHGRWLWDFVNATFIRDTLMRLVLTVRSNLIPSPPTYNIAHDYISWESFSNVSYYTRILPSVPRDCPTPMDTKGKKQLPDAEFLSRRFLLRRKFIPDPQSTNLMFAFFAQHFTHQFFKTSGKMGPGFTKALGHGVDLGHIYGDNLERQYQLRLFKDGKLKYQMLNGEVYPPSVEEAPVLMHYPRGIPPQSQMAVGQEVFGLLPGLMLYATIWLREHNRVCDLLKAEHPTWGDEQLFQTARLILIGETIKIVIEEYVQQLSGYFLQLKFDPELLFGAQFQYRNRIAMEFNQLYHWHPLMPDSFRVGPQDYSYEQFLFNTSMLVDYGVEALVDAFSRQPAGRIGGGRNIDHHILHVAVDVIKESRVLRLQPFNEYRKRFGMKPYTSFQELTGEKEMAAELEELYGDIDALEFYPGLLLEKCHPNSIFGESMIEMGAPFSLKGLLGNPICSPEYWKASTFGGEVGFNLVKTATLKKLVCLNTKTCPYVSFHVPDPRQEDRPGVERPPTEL
The data set is described as follows: inhibition of COX-1 enzymatic activity (PGE2 by EIA). It counts as biochemical. The following applies: purified enzyme from ram seminal vesicles; arachidonic acid 6 μM; n=1 to 4 determinations. On the procedure:
(§1) Inhibition of the COX-1 and COX-2 Enzymatic Activities The test molecule is preincubated for 10 minutes at 25° C. with 2 U of COX-1 (purified enzyme from ram seminal vesicles) or 1 U of COX-2 (purified enzyme from ewe placenta). Arachidonic acid (6 μM for COX-1, 4 μM for COX-2) is added to the reaction medium and incubation is carried out for 5 minutes at 25° C. When incubation has ended, the enzymatic reaction is stopped by the addition of 1 N HCl and the PGE2 produced is determined by EIA. The results are expressed as IC50, the concentration in nM which corresponds to 50% inhibition of the maximal enzymatic activity on the COX-1 and COX-2 (n=1 to 4 determinations).

Another data set deals with carrageenin oedema. The data set is described as follows: anti-inflammatory activity, carrageenin oedema test. In kind it is in vivo. The following applies: rat, oral; dose which induces 50% decrease in the volume of the oedema; read-out: Anti-inflammatory activity ID50. On the procedure:
(§2) The anti-inflarnmatory activity of the compounds of the Examples was evaluated by the carrageenin oedema method and the analgesic activity was evaluated by the kaolin arthritis method.
Anti-inflammatory Activity:
The anti-inflammatory activity is evaluated in the rat by the carrageenin oedema test. The product is administered orally at a rate of 2.5 ml/100 g (n=6 animals per dose) 2 h 30 min after oral hyperhydration (2.5 m/100 g); one hour after administration of the product, the oedema is induced by the plantar subcutaneous injection of 2% aqueous carrageenin solution. The results are expressed as the ID50, the dose in mg/kg which induces 50% decrease in the volume of the oedema, calculated by linear regression using the maximum oedema volume obtained for each product tested.

The subject of another data set is kaolin arthritis. The data set is described as follows: analgesic activity, kaolin arthritis test. The note with it: rat, oral; dose which induces 50% decrease of the maximum quotation in the control batch; read-out: Analgesic activity DE50. It counts as in vivo. On the procedure: as §2
The analgesic activity is evaluated in the rat by the kaolin arthritis test. Thirty minutes after the intra-articular administration of 10% aqueous kaolin suspension, the product is administered orally at a rate of 1 ml/100 g (n=10 animals per dose). The results are expressed as DE50, the dose in mg/kg which induces 50% decrease of the maximum quotation in the control batch, calculated by linear regression.

The next data set has as its target T2, COX-2 (Ovis aries, UniProt P79208).
T2 construct: purified enzyme from ewe placenta; from tissue; host or cells: ewe placenta (purified enzyme)
T2 sequence (P79208 17-603): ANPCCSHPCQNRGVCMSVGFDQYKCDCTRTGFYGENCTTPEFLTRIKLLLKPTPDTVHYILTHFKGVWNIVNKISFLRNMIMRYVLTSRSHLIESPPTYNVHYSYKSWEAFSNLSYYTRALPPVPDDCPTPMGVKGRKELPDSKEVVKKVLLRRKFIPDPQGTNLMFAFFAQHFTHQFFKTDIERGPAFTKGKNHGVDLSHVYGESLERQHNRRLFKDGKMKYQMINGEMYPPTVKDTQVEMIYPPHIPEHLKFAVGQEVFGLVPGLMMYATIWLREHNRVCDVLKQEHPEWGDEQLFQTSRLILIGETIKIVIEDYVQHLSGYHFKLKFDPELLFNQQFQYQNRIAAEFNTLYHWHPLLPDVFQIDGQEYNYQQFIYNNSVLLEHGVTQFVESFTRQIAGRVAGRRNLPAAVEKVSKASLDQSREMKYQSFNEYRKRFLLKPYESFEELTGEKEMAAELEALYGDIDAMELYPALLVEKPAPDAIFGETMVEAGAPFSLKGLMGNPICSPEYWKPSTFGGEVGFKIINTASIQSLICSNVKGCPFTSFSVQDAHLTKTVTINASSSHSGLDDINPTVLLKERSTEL
Description: inhibition of COX-2 enzymatic activity (PGE2 by EIA). In kind it is biochemical, ewe. The note with it: for IC50: purified enzyme from ewe placenta, arachidonic acid 4 μM, n=1 to 4 determinations; for Selectivity COX-1/COX-2 ratio: ratio of IC50 COX-1 / IC50 COX-2. On the procedure: as §1

Data set [1] is described as follows: gastric tolerance, ulceration index. More on the design: species or system Charles River rats of the CD strain. The note with it: rat, in vivo, po. On the procedure:
The gastric tolerance is studied on Charles River rats of the CD strain weighing between 110 and 150 g. The animals are placed on a water diet 24 h prior to oral administration of the product or the vehicle only at a rate of 1 ml/100 g (n=6 animals per dose). Six hours after administration,the animals are sacrificed and the stomachs are removed and opened along the large curvature. The number of haemorrhagic puncta and sulci per stomach, identified macroscopically, makes it possible to establish an ulceration index (0: no lesion, 1: 1 to 2 lesions, 2: 3 to 4 lesions, 3: 5 to 8 lesions, 4: 9 to 16 lesions, 5: more than 17 lesions) and to estimate the 50% ulcerigenic dose (UD50 =dose inducing 4 to 5 lesions, expressed in mg/kg).

The test system of another data set is apc/min mice. The data set is described as follows: chemoprevention assay in apc/min mice (model of human familial adenomatous polyposis). It counts as in vivo. The note with it: 1.8 mg/kg/day in the feed. The protocol: Chemoprevention Assays in Mice:
The test molecule is given in the feed to apc/min mice, a mouse model of human familial adenomatous polyposis, at 1.8 mg/kg/day for 240 days. The viability and the average tumor burden in animals receiving the test compound is compared to that in control animals.

SMILES strings stand for the structures.

The record followed here is US6180651A, “Diarylmethylidenefuran derivatives, processes for their preparation and their uses in therapeutics” (Bristol-Myers Squibb, priority 1996, dated 2001).

With `Cc1ccc(/C(=C2/CCOC2=O)c2ccc(S(C)(=O)=O)cc2)cc1` [85 (E isomer), (E)-3-[1-(4-methylphenyl)-1-(4-methanesulphonylphenyl)methylidene]-dihydro-furan-2-one], the figures for the IC50 at COX-1 and against COX-2 were over 100000 nM and 350 nM, respectively. For the same compound, the ED50 in the data set on carrageenin oedema and in the data set on kaolin arthritis was over 30 mg/kg in each case. In addition, the “Selectivity COX-1/COX-2 ratio” value at COX-2 is listed as over 286.

As for `CS(=O)(=O)c1ccc(/C(=C2\CCOC2=O)c2ccc(F)cc2)cc1` [4 (E isomer), (E)-3-[1-(4-fluorophenyl)-1-(4-methanesulphonylphenyl)methylidene]dihydrofuran-2-one], the values for the concentration for half-maximal inhibition (IC50) at COX-1 and against COX-2 were over 300000 nM and 674 ± 46 nM, respectively. Further, the ED50 with carrageenin oedema is 1.8 mg/kg; in the data set on kaolin arthritis it was 7.6 mg/kg. The “Selectivity COX-1/COX-2 ratio” value at COX-2 is over 445. Moreover, the TD50 at 6 h in data set [1] was over 1000 mg/kg.

On to `NS(=O)(=O)c1ccc(/C(=C2\CCOC2=O)c2ccc(Cl)cc2)cc1` [125 (Z isomer), (Z)-4-[(4-chlorophenyl)-(2-oxo-dihydro-furan-3-ylidene)-methyl]benzenesulphonamide], for which the concentration for half-maximal inhibition (IC50) against COX-1 worked out at 2520 ± 1310 nM; against COX-2, 60 nM. The ED50 came out at 1.8 mg/kg in the data set with carrageenin oedema and 8.5 mg/kg in the data set on kaolin arthritis. Moreover, the “Selectivity COX-1/COX-2 ratio” value on COX-2 stood at 42. Moreover, the TD50 at 6 h in data set [1] is over 1000 mg/kg.

Consider `CS(=O)(=O)c1ccc(/C(=C2\CCOC2=O)c2ccccc2)cc1` [28 (E isomer), (E)-3-[1-Phenyl-1-(4-methanesulphonylphenyl)methylidene]-dihydrofuran-2-one], for which the IC50 against COX-1 was over 10000 nM; on COX-2 it was 18400 nM. The ED50 in the data set on carrageenin oedema is 10.1 mg/kg; in the data set with kaolin arthritis, 26.1 mg/kg. Further, the “Selectivity COX-1/COX-2 ratio” value on COX-2 is recorded as over 0.5.

As to `CS(=O)(=O)c1ccc(/C(=C2\CCOC2=O)c2cc(F)cc(F)c2)cc1` [80 (Z isomer), (Z)-3-[1-(3,5-difluorophenyl)-1-(4-methanesulphonylphenyl)methylidene]-dihydro-furan-2-one], the IC50 against COX-1 is over 100000 nM; at COX-2 it was 518 nM. In addition, the ED50 worked out at 4.8 mg/kg in the data set on carrageenin oedema and 5.8 mg/kg with kaolin arthritis. Also, at COX-2, the “Selectivity COX-1/COX-2 ratio” value is recorded as over 193.

On to `CS(=O)(=O)c1ccc(/C(=C2\CCOC2=O)c2ccc(Cl)cc2)cc1` [8 (Z isomer), (Z)-3-[1-(4-chlorophenyl)-1-(4-methanesulphonylphenyl)methylidene]dihydrofuran-2-one], for which the mice still alive with apc/min mice (240 days, control 8/29) is on record as 17/29. In the data set with apc/min mice (240 days, control 16.3 tumors), this compound displayed an average tumor burden of 11.9 tumors per mouse. For the same compound, in the data set on apc/min mice (after 240 days), the “viability compared to control” value is on record as “outliving their control counterparts”. Also, the figures for the IC50 on COX-1 and on COX-2 were 172000 ± 22200 nM and 182 ± 25 nM, respectively. Moreover, the figures for the ED50 in the data set on carrageenin oedema and in the data set with kaolin arthritis were 3.7 mg/kg and 2.1 mg/kg, respectively. In addition, the “Selectivity COX-1/COX-2 ratio” value at COX-2 amounted to 944. In addition, the TD50 at 6 h in data set [1] is over 1000 mg/kg.

On to `CS(=O)(=O)c1ccc(/C(=C2\CCOC2=O)c2ccc(F)c(F)c2)cc1` [54 (Z isomer), (Z)-3-[1-(3,4-Difluorophenyl)-1-(4-methanesulphonylphenyl)-methylidene]dihydrofuran-2-one], for which the IC50 was over 100000 nM on COX-1 and 710 nM on COX-2. The values for the ED50 with carrageenin oedema and in the data set on kaolin arthritis were over 30 mg/kg and 10.8 mg/kg, respectively. For the same compound, on COX-2, the “Selectivity COX-1/COX-2 ratio” value is recorded as over 141.
